# “Also recorded” adds a separate entry of the source. Where two headings read alike, the source gives them in different places.
# Experiments:
# [1] = target: HIV-1 Env (Human immunodeficiency virus type 1, UniProt Q71014)
# [2] = system: 2F5 Fab; test: SPR analysis of compound binding to 2F5 Fab
# [3] = system: TZM.bl cells
# [4] = target: 92UG037.8 HIV-1 Env W666A (Human immunodeficiency virus type 1, UniProt Q71014, W659A); assay type: cell-based
# [5] = system: HIV-1 Env pseudoviruses; assay type: cell-based
# [6] = system: Env-expressing cells, CD4- and CCR5-expressing cells
# [7] = target: gp41-inter (Human immunodeficiency virus type 1, UniProt Q71014); assay type: binding, HIV-1
# [8] = system: gp41-inter binding to 240D Fab; design: species or system HIV-1
# [9] = system: gp41-inter binding to 2F5 Fab; design: species or system HIV-1
smiles,measurement,setting,value
Cc1cc(N)c2ccccc2n1 [4-aminoquinaldine],activity in blocking HIV-1 Env mediated cell-cell fusion (in words),[1],no activity
"Cc1cc(N)c2ccccc2[n+]1CCCCCCCCCC[n+]1c(C)cc(N)c2ccccc21 [dequalinium, quinolinium,1,1′-(1,10-decanediyl)-bis(4-amino-2-methyldiiodide)]",binding to 2F5,[2]; SPR,no binding
same,cytotoxicity in the viral infectivity assay,[3],more cytotoxicity than in the cell-cell fusion assay
same,resistance of mutant Env to inhibition of cell-cell fusion versus wildtype Env,[4],significantly more resistant
same,inhibition of HIV-1 infectivity versus MuLV control,[5],greater inhibition to several HIV-1 isolates
same,inhibition of cell-cell fusion mediated by Envs of primary HIV-1 isolates of different clades,[1],can also target Envs from multiple primary HIV-1 isolates of different clades; also recorded: specifically inhibited cell-cell fusion
same,cytotoxicity by an assay measuring ATP concentration,[6],minimal level of cytotoxicity
Cc1cc(N)cc[n+]1CCCCCCCCCC[n+]1ccc(N)cc1C [Compound S2C9],inhibition potency in the cell-cell fusion assay compared to dequalinium,[1],significant decreases in potency
Nc1cc[n+](CCCCCCCCCC[n+]2ccc(N)c3cc(Br)ccc32)c2ccc(Br)cc12 [Compound S2C7],inhibition potency in the cell-cell fusion assay compared to dequalinium,[1],modestly improved potency
c1ccc2c(c1)ccc[n+]2CCCCCCCCCC[n+]1cccc2ccccc21 [Compound S2C10],binding to gp41-inter (in words),[7],no binding
same,inhibition potency in the cell-cell fusion assay compared to dequalinium,[1],significant decreases in potency
Nc1cc[n+](CCCCCCCCCC[n+]2ccc(N)c3ccccc32)c2ccccc12 [Compound S2C1],inhibition potency in the cell-cell fusion assay compared to dequalinium,[1],significant decreases in potency
Nc1c2c([n+](CCCCCCCCCC[n+]3c4c(c(N)c5ccccc53)CCC4)c3ccccc13)CCC2 [Compound S2C3],binding to 2F5,[2],no binding
same,competition with 240D Fab for binding to gp41-inter,[8],"not with a cluster I antibody, 240D Fab"
same,competition with 2F5 for binding to gp41-inter,[9],competed with 2F5 for binding to gp41-inter
same,potency of inhibition of viral infectivity compared to dequalinium,[5],improvement in potency
same,inhibition potency in the cell-cell fusion assay compared to dequalinium,[1],significant improvement
